In ChEMBL document CHEMBL1240358, “Activity of a new antipseudomonal cephalosporin, CXA-101 (FR264205), against carbapenem-resistant and multidrug-resistant Pseudomonas aeruginosa clinical strains” (2010):
≈ marks a conversion by molar mass, not a printed value.

Assays:
Format in all cases: functional
Pseudomonas aeruginosa [1] = assay: Antibacterial activity against carbapenem-resistant Pseudomonas aeruginosa isolate 1E1 PpA1 harboring acquired beta-lactamase OXA-144 by broth microdilution method
Pseudomonas aeruginosa [2] = assay: Antibacterial activity against carbapenem-resistant Pseudomonas aeruginosa isolate 3C8 GM1 harboring acquired beta-lactamase OXA-144 by broth microdilution method
Pseudomonas aeruginosa [3] = assay: Antibacterial activity against Pseudomonas aeruginosa PAO1 harboring acquired beta-lactamase OXA-144 by broth microdilution method
Pseudomonas aeruginosa [4] = assay: Antibacterial activity against Pseudomonas aeruginosa PAO1 by broth microdilution method
Pseudomonas aeruginosa [5] = assay: Antibacterial activity against carbapenem-resistant Pseudomonas aeruginosa isolate 1B2 RCA2 harboring acquired beta-lactamase PER-1 by broth microdilution method
Pseudomonas aeruginosa [6] = assay: Antibacterial activity against carbapenem-resistant Pseudomonas aeruginosa isolate 3C1 VAL6 by broth microdilution method
Pseudomonas aeruginosa [7] = assay: Antibacterial activity against carbapenem-resistant Pseudomonas aeruginosa isolate 1E3 PpA2 harboring acquired beta-lactamase OXA-101 by broth microdilution method
Pseudomonas aeruginosa [8] = assay: Antibacterial activity against carbapenem-resistant Pseudomonas aeruginosa isolate 1E2 PpA1 harboring acquired beta-lactamase OXA-144 by broth microdilution method
Pseudomonas aeruginosa [9] = assay: Antibacterial activity against Pseudomonas aeruginosa assessed as percent nonsusceptible isolates by broth microdilution assay
Pseudomonas aeruginosa [10] = assay: Antibacterial activity against carbapenem-resistant Pseudomonas aeruginosa isolate 3D2 GM2 harboring acquired beta-lactamase BEL-3 by broth microdilution method
Pseudomonas aeruginosa [11] = assay: Antibacterial activity against carbapenem-resistant Pseudomonas aeruginosa isolate 1C3 PTOL1 harboring acquired beta-lactamase OXA-17 by broth microdilution method
Pseudomonas aeruginosa [12] = assay: Antibacterial activity against carbapenem-resistant Pseudomonas aeruginosa isolate 1D5 SA1 harboring acquired beta-lactamase VIM-2 by broth microdilution method
Pseudomonas aeruginosa [13] = assay: Antibacterial activity against carbapenem-resistant Pseudomonas aeruginosa isolate 1C2 PTOL1 harboring beta-lactamase OXA-17 by broth microdilution method
Pseudomonas aeruginosa [14] = assay: Antibacterial activity against carbapenem-resistant Pseudomonas aeruginosa isolate 3C9 GM1 harboring acquired beta-lactamase OXA-144 by broth microdilution method
Pseudomonas aeruginosa [15] = assay: Antibacterial activity against Pseudomonas aeruginosa PAO1 harboring acquired beta-lactamase OXA-2 by broth microdilution method
Pseudomonas aeruginosa [16] = assay: Antibacterial activity against aztreonam-susceptible Pseudomonas aeruginosa by broth microdilution method
Pseudomonas aeruginosa [17] = assay: Antibacterial activity against tobramycin-susceptible Pseudomonas aeruginosa by broth microdilution method
Pseudomonas aeruginosa [18] = assay: Antibacterial activity against piperacillin-susceptible Pseudomonas aeruginosa by broth microdilution method
Pseudomonas aeruginosa [19] = assay: Antibacterial activity against Pseudomonas aeruginosa isolated from non-intensive care unit patient by broth microdilution method
Pseudomonas aeruginosa [20] = assay: Antibacterial activity against ceftazidime-susceptible Pseudomonas aeruginosa by broth microdilution method
Pseudomonas aeruginosa [21] = assay: Antibacterial activity against piperacillin- and tazobactam-resistant Pseudomonas aeruginosa by broth microdilution method
Pseudomonas aeruginosa [22] = assay: Antibacterial activity against Pseudomonas aeruginosa isolated from intensive care unit patient by broth microdilution method
Pseudomonas aeruginosa [23] = assay: Antibacterial activity against amikacin-susceptible Pseudomonas aeruginosa by broth microdilution method
Pseudomonas aeruginosa [24] = assay: Antibacterial activity against amikacin-resistant Pseudomonas aeruginosa by broth microdilution method
Pseudomonas aeruginosa [25] = assay: Antibacterial activity against Pseudomonas aeruginosa harboring low level of beta lactamase AmpC by broth microdilution method
Pseudomonas aeruginosa [26] = assay: Antibacterial activity against meropenem-resistant Pseudomonas aeruginosa by broth microdilution method
Pseudomonas aeruginosa [27] = assay: Antibacterial activity against piperacillin- and tazobactam-susceptible Pseudomonas aeruginosa by broth microdilution method
Pseudomonas aeruginosa [28] = assay: Antibacterial activity against Pseudomonas aeruginosa by broth microdilution method
Pseudomonas aeruginosa [29] = assay: Antibacterial activity against cefepime-susceptible Pseudomonas aeruginosa by broth microdilution method
Pseudomonas aeruginosa [30] = assay: Antibacterial activity against imipenem-resistant Pseudomonas aeruginosa by broth microdilution method
Pseudomonas aeruginosa [31] = assay: Antibacterial activity against multidrug-resistant Pseudomonas aeruginosa by broth microdilution method
Pseudomonas aeruginosa [32] = assay: Antibacterial activity against piperacillin-resistant Pseudomonas aeruginosa by broth microdilution method
Pseudomonas aeruginosa [33] = assay: Antibacterial activity against non-multidrug-resistant Pseudomonas aeruginosa by broth microdilution method
Pseudomonas aeruginosa [34] = assay: Antibacterial activity against cephalosporin-resistant Pseudomonas aeruginosa clinical isolates
Pseudomonas aeruginosa [35] = assay: Antibacterial activity against ceftazidime-resistant Pseudomonas aeruginosa by broth microdilution method
Pseudomonas aeruginosa [36] = assay: Antibacterial activity against multidrug-resistant Pseudomonas aeruginosa isolated from patient with cystic fibrosis
Pseudomonas aeruginosa [37] = assay: Antibacterial activity against ticarcillin-susceptible Pseudomonas aeruginosa by broth microdilution method
Pseudomonas aeruginosa [38] = assay: Antibacterial activity against ciprofloxacin-resistant Pseudomonas aeruginosa by broth microdilution method
Pseudomonas aeruginosa [39] = assay: Antibacterial activity against tobramycin-resistant Pseudomonas aeruginosa by broth microdilution method
Pseudomonas aeruginosa [40] = assay: Antibacterial activity against cefepime-resistant Pseudomonas aeruginosa by broth microdilution method
Pseudomonas aeruginosa [41] = assay: Antibacterial activity against gentamicin-susceptible Pseudomonas aeruginosa by broth microdilution method
Pseudomonas aeruginosa [42] = assay: Antibacterial activity against ticarcillin-resistant Pseudomonas aeruginosa by broth microdilution method
Pseudomonas aeruginosa [43] = assay: Antibacterial activity against gentamicin-resistant Pseudomonas aeruginosa by broth microdilution method
Pseudomonas aeruginosa [44] = assay: Antibacterial activity against Pseudomonas aeruginosa harboring high level of beta lactamase AmpC by broth microdilution method
Pseudomonas aeruginosa [45] = assay: Antibacterial activity against aztreonam-resistant Pseudomonas aeruginosa by broth microdilution method
Pseudomonas aeruginosa [46] = assay: Antibacterial activity against ciprofloxacin -susceptible Pseudomonas aeruginosa by broth microdilution method
Pseudomonas aeruginosa [47] = assay: Antibacterial activity against imipenem-susceptible Pseudomonas aeruginosa by broth microdilution method
Pseudomonas aeruginosa [48] = assay: Antibacterial activity against meropenem-susceptible Pseudomonas aeruginosa by broth microdilution method

## CC(C)(O/N=C(\C(=O)N[C@@H]1C(=O)N2C(C(=O)[O-])=C(C[n+]3ccccc3)CS[C@H]12)c1csc(N)n1)C(=O)O [CEFTAZIDIME]
Pseudomonas aeruginosa [1]
  MIC: > 64 mg/L
Pseudomonas aeruginosa [2]
  MIC: 32 mg/L (≈ 58.5 µM)
Pseudomonas aeruginosa [3]
  MIC: > 64 mg/L
Pseudomonas aeruginosa [4]
  MIC: 1 mg/L (≈ 1.83 µM)
Pseudomonas aeruginosa [5]
  MIC: > 64 mg/L
Pseudomonas aeruginosa [6]
  MIC: > 64 mg/L
Pseudomonas aeruginosa [7]
  MIC: 64 mg/L (≈ 117 µM)
Pseudomonas aeruginosa [8]
  MIC: > 64 mg/L
Pseudomonas aeruginosa [9]
  Activity: 46.2%
Pseudomonas aeruginosa [10]
  MIC: > 64 mg/L
Pseudomonas aeruginosa [11]
  MIC: > 64 mg/L
Pseudomonas aeruginosa [12]
  MIC: 16 mg/L (≈ 29.3 µM)
Pseudomonas aeruginosa [13]
  MIC: > 64 mg/L
Pseudomonas aeruginosa [14]
  MIC: 32 mg/L (≈ 58.5 µM)
Pseudomonas aeruginosa [15]
  MIC: 4 mg/L (≈ 7.32 µM)

## GENTAMICIN
Pseudomonas aeruginosa [9]
  Activity: 58.9%

## Cn1c(N)c(NC(=O)NCCN)c[n+]1CC1=C(C(=O)O)N2C(=O)[C@@H](NC(=O)/C(=N\OC(C)(C)C(=O)[O-])c3nsc(N)n3)[C@H]2SC1 [CEFTOLOZANE]
Pseudomonas aeruginosa [16]
  MIC50: 1 mg/L (≈ 1.5 µM)
  MIC90: 2 mg/L (≈ 3 µM)
Pseudomonas aeruginosa [17]
  MIC50: 1 mg/L (≈ 1.5 µM)
  MIC90: 2 mg/L (≈ 3 µM)
Pseudomonas aeruginosa [18]
  MIC50: 1 mg/L (≈ 1.5 µM)
  MIC90: 2 mg/L (≈ 3 µM)
Pseudomonas aeruginosa [19]
  MIC50: 1 mg/L (≈ 1.5 µM)
  MIC90: 2 mg/L (≈ 3 µM)
Pseudomonas aeruginosa [20]
  MIC50: 1 mg/L (≈ 1.5 µM)
  MIC90: 2 mg/L (≈ 3 µM)
Pseudomonas aeruginosa [1]
  MIC: 32 mg/L (≈ 48 µM)
Pseudomonas aeruginosa [21]
  MIC50: 1 mg/L
  MIC90: 4 mg/L
Pseudomonas aeruginosa [22]
  MIC50: 1 mg/L (≈ 1.5 µM)
  MIC90: 4 mg/L (≈ 6 µM)
Pseudomonas aeruginosa [23]
  MIC50: 1 mg/L (≈ 1.5 µM)
  MIC90: 2 mg/L (≈ 3 µM)
Pseudomonas aeruginosa [24]
  MIC50: 1 mg/L (≈ 1.5 µM)
  MIC90: 64 mg/L (≈ 96 µM)
Pseudomonas aeruginosa [25]
  MIC50: 1 mg/L (≈ 1.5 µM)
  MIC90: 2 mg/L (≈ 3 µM)
Pseudomonas aeruginosa [2]
  MIC: 32 mg/L (≈ 48 µM)
Pseudomonas aeruginosa [26]
  MIC50: 1 mg/L (≈ 1.5 µM)
  MIC90: 4 mg/L (≈ 6 µM)
Pseudomonas aeruginosa [27]
  MIC50: 1 mg/L
  MIC90: 2 mg/L
Pseudomonas aeruginosa [28]
  MIC50: 1 mg/L (≈ 1.5 µM)
  MIC90: 4 mg/L (≈ 6 µM)
Pseudomonas aeruginosa [29]
  MIC50: 0.5 mg/L (≈ 0.75 µM)
  MIC90: 2 mg/L (≈ 3 µM)
Pseudomonas aeruginosa [30]
  MIC50: 1 mg/L (≈ 1.5 µM)
  MIC90: 4 mg/L (≈ 6 µM)
Pseudomonas aeruginosa [3]
  MIC: 32 mg/L (≈ 48 µM)
Pseudomonas aeruginosa [31]
  MIC50: 1 mg/L (≈ 1.5 µM)
  MIC90: 4 mg/L (≈ 6 µM)
Pseudomonas aeruginosa [4]
  MIC: 0.25 mg/L (≈ 0.375 µM)
Pseudomonas aeruginosa [32]
  MIC50: 1 mg/L (≈ 1.5 µM)
  MIC90: 8 mg/L (≈ 12 µM)
Pseudomonas aeruginosa [33]
  MIC50: 1 mg/L (≈ 1.5 µM)
  MIC90: 2 mg/L (≈ 3 µM)
Pseudomonas aeruginosa [5]
  MIC: 64 mg/L (≈ 96 µM)
Pseudomonas aeruginosa [34]
  MIC50: 0.51 mg/L (≈ 0.765 µM)
  MIC90: 1 mg/L (≈ 1.5 µM)
Pseudomonas aeruginosa [6]
  MIC: 64 mg/L (≈ 96 µM)
Pseudomonas aeruginosa [35]
  MIC50: 1 mg/L (≈ 1.5 µM)
  MIC90: 4 mg/L (≈ 6 µM)
Pseudomonas aeruginosa [36]
  MIC: > 8 mg/L
Pseudomonas aeruginosa [7]
  MIC: 32 mg/L (≈ 48 µM)
Pseudomonas aeruginosa [37]
  MIC50: 1 mg/L (≈ 1.5 µM)
  MIC90: 2 mg/L (≈ 3 µM)
Pseudomonas aeruginosa [38]
  MIC50: 1 mg/L (≈ 1.5 µM)
  MIC90: 4 mg/L (≈ 6 µM)
Pseudomonas aeruginosa [8]
  MIC: 64 mg/L (≈ 96 µM)
Pseudomonas aeruginosa [39]
  MIC50: 1 mg/L (≈ 1.5 µM)
  MIC90: 4 mg/L (≈ 6 µM)
Pseudomonas aeruginosa [40]
  MIC50: 1 mg/L (≈ 1.5 µM)
  MIC90: 4 mg/L (≈ 6 µM)
Pseudomonas aeruginosa [41]
  MIC50: 1 mg/L (≈ 1.5 µM)
  MIC90: 2 mg/L (≈ 3 µM)
Pseudomonas aeruginosa [42]
  MIC50: 1 mg/L (≈ 1.5 µM)
  MIC90: 8 mg/L (≈ 12 µM)
Pseudomonas aeruginosa [10]
  MIC: 32 mg/L (≈ 48 µM)
Pseudomonas aeruginosa [11]
  MIC: 64 mg/L (≈ 96 µM)
Pseudomonas aeruginosa [12]
  MIC: 64 mg/L (≈ 96 µM)
Pseudomonas aeruginosa [13]
  MIC: 64 mg/L (≈ 96 µM)
Pseudomonas aeruginosa [43]
  MIC50: 1 mg/L (≈ 1.5 µM)
  MIC90: 4 mg/L (≈ 6 µM)
Pseudomonas aeruginosa [44]
  MIC50: 1 mg/L (≈ 1.5 µM)
  MIC90: 4 mg/L (≈ 6 µM)
Pseudomonas aeruginosa [14]
  MIC: 32 mg/L (≈ 48 µM)
Pseudomonas aeruginosa [45]
  MIC50: 1 mg/L (≈ 1.5 µM)
  MIC90: 4 mg/L (≈ 6 µM)
Pseudomonas aeruginosa [46]
  MIC50: 1 mg/L (≈ 1.5 µM)
  MIC90: 2 mg/L (≈ 3 µM)
Pseudomonas aeruginosa [47]
  MIC50: 1 mg/L (≈ 1.5 µM)
  MIC90: 4 mg/L (≈ 6 µM)
Pseudomonas aeruginosa [48]
  MIC50: 1 mg/L (≈ 1.5 µM)
  MIC90: 2 mg/L (≈ 3 µM)
Pseudomonas aeruginosa [15]
  MIC: 0.5 mg/L (≈ 0.75 µM)

## C[C@@H](O)[C@H]1C(=O)N2C(C(=O)O)=C(S[C@@H]3CN[C@H](C(=O)N(C)C)C3)[C@H](C)[C@H]12 [MEROPENEM]
Pseudomonas aeruginosa [1]
  MIC: 16 mg/L (≈ 41.7 µM)
Pseudomonas aeruginosa [2]
  MIC: 4 mg/L (≈ 10.4 µM)
Pseudomonas aeruginosa [3]
  MIC: 0.5 mg/L (≈ 1.3 µM)
Pseudomonas aeruginosa [4]
  MIC: 0.25 mg/L (≈ 0.652 µM)
Pseudomonas aeruginosa [5]
  MIC: 16 mg/L (≈ 41.7 µM)
Pseudomonas aeruginosa [6]
  MIC: 4 mg/L (≈ 10.4 µM)
Pseudomonas aeruginosa [8]
  MIC: 32 mg/L (≈ 83.4 µM)
Pseudomonas aeruginosa [9]
  Activity: 52.1%
Pseudomonas aeruginosa [10]
  MIC: 4 mg/L (≈ 10.4 µM)
Pseudomonas aeruginosa [12]
  MIC: 16 mg/L (≈ 41.7 µM)
Pseudomonas aeruginosa [14]
  MIC: 4 mg/L (≈ 10.4 µM)
Pseudomonas aeruginosa [15]
  MIC: 0.5 mg/L (≈ 1.3 µM)

## CCN1CCN(C(=O)N[C@@H](C(=O)N[C@@H]2C(=O)N3[C@@H]2SC(C)(C)[C@@H]3C(=O)O)c2ccccc2)C(=O)C1=O [PIPERACILLIN]
Pseudomonas aeruginosa [3]
  MIC: 16 mg/L (≈ 30.9 µM)
Pseudomonas aeruginosa [4]
  MIC: 4 mg/L (≈ 7.73 µM)
Pseudomonas aeruginosa [9]
  Activity: 28.4%
Pseudomonas aeruginosa [15]
  MIC: 32 mg/L (≈ 61.8 µM)
